Assay results taken from US12371454B2, “Cyclic peptide compound having Kras inhibitory action” (priority 2019, dated 2025).
Positions of bridges follow the written chain, without caps; N, C: chain ends. Non-standard residues stand in square brackets, D forms with d. Residues, ends and D or L forms follow the SMILES beside them. *: point of attachment. hPhe(3-Cl-4-CF3) = N[C@@H](CCc1ccc(C(F)(F)F)c(Cl)c1)C(=O)O; NMePhe(4-Cl) = CN[C@@H](Cc1ccc(Cl)cc1)C(=O)O; NMePhe(4-Me) = CN[C@@H](Cc1ccc(C)cc1)C(=O)O; hPhe(4-Cl) = N[C@@H](CCc1ccc(Cl)cc1)C(=O)O; Phe(2-OMe) = COc1ccccc1C[C@H](N)C(=O)O; Phe(3-I) = N[C@@H](Cc1cccc(I)c1)C(=O)O; NMe3Pal = CN[C@@H](Cc1cccnc1)C(=O)O; NMeGly(cBu) = CN[C@H](C(=O)O)C1CCC1; NMeCha = CN[C@@H](CC1CCCCC1)C(=O)O; NMeChg = CN[C@H](C(=O)O)C1CCCCC1; hPhe = N[C@@H](CCc1ccccc1)C(=O)O; N(CH2CH2)2CF2 = FC1(F)CCN(*)CC1; NMeD = CN[C@@H](CC(=O)O)C(=O)O; NMeL = CN[C@@H](CC(C)C)C(=O)O; Cba = N[C@@H](CC1CCC1)C(=O)O; NMeV = CN[C@H](C(=O)O)C(C)C; d(β3hA) = C[C@@H](N)CC(=O)O; NMeA = CN[C@@H](C)C(=O)O; NMeAib = CNC(C)(C)C(=O)O; Piperidide = C1CCN(*)CC1; Ac5c = NC1(C(=O)O)CCCC1; Aze = O=C(O)[C@@H]1CCN1; Thp = NC1(C(=O)O)CCOCC1; Abu = CC[C@H](N)C(=O)O; Aib = CC(C)(N)C(=O)O; Sar = CNCC(=O)O

Each molecule was assayed against T1, Kras and SOS1 (biotin-tagged human Kras loaded with GDP, His-tagged human SOS1) (Homo sapiens, UniProt P01116, G12D) (assay: Protein-protein interaction inhibition between Kras and SOS1 (KrasGl2D-SOS PPI) using AlphaScreen). Conditions: AlphaScreen; biotin-tagged human Kras loaded with GDP, His-tagged human SOS1; read-out: KRAS G12D-SOS PPI IC50.
T1 construct: made in house; host or cells: E. coli (stated for Kras only)
T1 sequence (P01116 1-188 isoform P01116-2 G12D): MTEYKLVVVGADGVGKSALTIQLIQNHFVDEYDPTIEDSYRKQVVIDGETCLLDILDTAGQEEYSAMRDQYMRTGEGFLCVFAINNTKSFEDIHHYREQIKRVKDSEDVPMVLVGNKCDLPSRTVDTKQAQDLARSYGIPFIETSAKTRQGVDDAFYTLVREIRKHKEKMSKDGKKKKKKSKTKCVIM
Type: binding
How it was run: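 Kras was produced in E. coli, purified, then loaded with GDP. It was paired via streptavidin acceptor beads with His-SOS1 held on nickel donor beads, and proximity signal at 520-620 nm was read after 680 nm illumination.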

Row | Compound | IC50 [nM]
1 | CC[C@H](C)[C@@H]1NC(=O)[C@H](C)N(C)C(=O)C[C@@H](C(=O)N2CCCCC2)N(C)C(=O)[C@H](C2CCCCC2)N(C)C(=O)C2(CCCC2)NC(=O)[C@H](Cc2cccnc2)N(C)C(=O)[C@H](CCc2ccc(C(F)(F)F)c(Cl)c2)NC(=O)CN(C)C(=O)[C@H](CC2CCCCC2)N(C)C(=O)[C@@H]2CCCN2C(=O)CN(C)C1=O [Compound 433] ([NMeA]I[Sar]P[NMeCha][Sar][hPhe(3-Cl-4-CF3)][NMe3Pal][Ac5c][NMeChg][NMeD]-Piperidide; lactam N-11) | 2.2
2 | CC[C@H](C)[C@@H]1NC(=O)[C@H](CC(C)C)N(C)C(=O)C[C@@H](C(=O)N2CCCCC2)N(C)C(=O)[C@H](CC(C)C)NC(=O)C(C)(C)N(C)C(=O)[C@H](CCc2ccccc2)NC(=O)[C@H](Cc2cccc(I)c2)NC(=O)CN(C)C(=O)[C@H](Cc2ccc(C)cc2)N(C)C(=O)[C@@H]2CCN2C(=O)CN(C)C1=O [Compound 442] ([NMeL]I[Sar][Aze][NMePhe(4-Me)][Sar][Phe(3-I)][hPhe][NMeAib]L[NMeD]-Piperidide; lactam N-11) | 70
3 | CC[C@H](C)[C@@H]1NC(=O)[C@H](CC(C)C)N(C)C(=O)C[C@@H](C(=O)N2CCCCC2)N(C)C(=O)[C@H](C(C)C)N(C)C(=O)[C@H](C)NC(=O)[C@H](CC(=O)N2CCC(F)(F)CC2)N(C)C(=O)[C@H](CCc2ccc(C(F)(F)F)c(Cl)c2)NC(=O)CN(C)C(=O)[C@H](CC2CCCCC2)N(C)C(=O)CN(C)C(=O)CN(C)C1=O [Compound 444] ([NMeL]I[Sar][Sar][NMeCha][Sar][hPhe(3-Cl-4-CF3)][NMeD](N(CH2CH2)2CF2)A[NMeV][NMeD]-Piperidide; lactam N-11) | 18
4 | CC[C@H](C)[C@@H]1NC(=O)[C@H](C)N(C)C(=O)C[C@@H](C(=O)N2CCCCC2)N(C)C(=O)[C@H](C(C)C)N(C)C(=O)C2(CCCC2)NC(=O)[C@@H]2CCCN2C(=O)[C@H](CCc2ccc(C(F)(F)F)c(Cl)c2)NC(=O)[C@H]2CCCN2C(=O)[C@H](CC2CCCCC2)N(C)C(=O)[C@@H]2CCN2C(=O)CN(C)C1=O [Compound 447] ([NMeA]I[Sar][Aze][NMeCha][dP][hPhe(3-Cl-4-CF3)]P[Ac5c][NMeV][NMeD]-Piperidide; lactam N-11) | 14
5 | CC[C@H](C)[C@@H]1NC(=O)[C@H](CC(C)C)N(C)C(=O)C[C@@H](C(=O)N2CCCCC2)N(C)C(=O)[C@H](C(C)C)N(C)C(=O)C2(CCOCC2)NC(=O)[C@@H]2CCCN2C(=O)[C@H](CCc2ccc(Cl)cc2)NC(=O)CN(C)C(=O)[C@H](CC2CCCCC2)N(C)C(=O)CN(C)C(=O)CN(C)C1=O [Compound 448] ([NMeL]I[Sar][Sar][NMeCha][Sar][hPhe(4-Cl)]P[Thp][NMeV][NMeD]-Piperidide; lactam N-11) | 91
6 | CC(C)C[C@H]1C(=O)N[C@@H](CC2CCC2)C(=O)N(C)CC(=O)N(C)CC(=O)N(C)[C@@H](CC2CCCCC2)C(=O)N(C)CC(=O)N[C@@H](CCc2ccc(C(F)(F)F)c(Cl)c2)C(=O)N2CCC[C@H]2C(=O)NC2(CCCC2)C(=O)N(C)[C@@H](C(C)C)C(=O)N(C)[C@H](C(=O)N2CCCCC2)CC(=O)N1C [Compound 451] ([NMeL][Cba][Sar][Sar][NMeCha][Sar][hPhe(3-Cl-4-CF3)]P[Ac5c][NMeV][NMeD]-Piperidide; lactam N-11) | 10
7 | CC[C@@H]1NC(=O)[C@H](Cc2cccc(I)c2)NC(=O)CN(C)C(=O)[C@H](Cc2ccc(Cl)cc2)N(C)C(=O)CN(C)C(=O)CN(C)C(=O)[C@H]([C@@H](C)CC)NC(=O)[C@H](CC(C)C)N(C)C(=O)C[C@@H](C(=O)N2CCCCC2)N(C)C(=O)[C@H](CC(C)C)NC(=O)C(C)(C)N(C)C1=O [Compound 457] ([NMeL]I[Sar][Sar][NMePhe(4-Cl)][Sar][Phe(3-I)][Abu][NMeAib]L[NMeD]-Piperidide; lactam N-11) | 69
8 | CC[C@H](C)[C@@H]1NC(=O)[C@H](CC(C)C)N(C)C(=O)C[C@@H](C(=O)N2CCCCC2)N(C)C(=O)[C@H](CC(C)C)NC(=O)C(C)(C)N(C)C(=O)[C@H](Cc2ccccc2OC)NC(=O)[C@H](Cc2cccc(I)c2)NC(=O)CN(C)C(=O)[C@H](Cc2ccc(C)cc2)N(C)C(=O)[C@@H]2CCN2C(=O)CN(C)C1=O [Compound 459] ([NMeL]I[Sar][Aze][NMePhe(4-Me)][Sar][Phe(3-I)][Phe(2-OMe)][NMeAib]L[NMeD]-Piperidide; lactam N-11) | 9.5
9 | CC[C@H](C)[C@@H]1NC(=O)[C@H](CC(C)C)N(C)C(=O)C[C@@H](C(=O)N2CCCCC2)N(C)C(=O)[C@H](C(C)C)N(C)C(=O)C(C)(C)NC(=O)[C@H](CC(=O)N2CCC(F)(F)CC2)N(C)C(=O)[C@H](CCc2ccc(C(F)(F)F)c(Cl)c2)NC(=O)CN(C)C(=O)[C@H](CC2CCCCC2)N(C)C(=O)CN(C)C(=O)CN(C)C1=O [Compound 463] ([NMeL]I[Sar][Sar][NMeCha][Sar][hPhe(3-Cl-4-CF3)][NMeD](N(CH2CH2)2CF2)[Aib][NMeV][NMeD]-Piperidide; lactam N-11) | 4.4
10 | CC[C@H](C)[C@@H]1NC(=O)[C@H](C2CCC2)N(C)C(=O)C[C@@H](C)NC(=O)[C@H](C(C)C)N(C)C(=O)C2(CCCC2)NC(=O)[C@@H]2CCCN2C(=O)[C@H](CCc2ccc(C(F)(F)F)c(Cl)c2)NC(=O)CN(C)C(=O)[C@H](CC2CCCCC2)N(C)C(=O)[C@@H]2CCN2C(=O)[C@H](C)N(C)C1=O [Compound 465] (cyclo([Ac5c][NMeV][d(β3hA)][NMeGly(cBu)]I[NMeA][Aze][NMeCha][Sar][hPhe(3-Cl-4-CF3)]P)) | 55
